Reference: US11541033B2, “Agent for preventing or treating Alzheimer's disease” (FUJIFILM Toyama Chemical Co., Ltd., priority 2017, dated 2023)

Legend:
Type in all cases: in vivo, human
[1] = tested on: mild to moderate AD patients; assay: Test Example 2: early phase II placebo-controlled trial, ADAS-cog change from baseline; conditions: for Change in ADAS-cog from baseline at week 52, least square means (95% confidence interval) / Change in ADAS-cog from baseline at week 52, difference from placebo group (95% confidence interval): MMSE 22 or less at screening
Description: (§1) Test Example 2 Multicenter Randomized Double-Blind Early Phase II Placebo-Controlled Trial for Assessing Effectiveness and Safety of Compound a in Mild to Moderate AD Patients
(§2) Patients were screened in a period from 28 days before treatment assignment to the assignment based on the following selection criteria. Patients matched (373 patients) were randomly divided into the following 2 groups and the trial was started.
(§3) • Patients who were probable AD and over or 50 years old or older and 90 years old or younger at the time of obtaining consent of screening. • Patients with an MMSE score of 15 to 24 at the time of screening • Patients with a Modified Hachinski Ischemia Scale score of 4 or less • Patients who have been treated with a donepezil hydrochloride for at least 6 months before the baseline and with a stable dose thereof for 3 months before the baseline. • Patients whose brain MRI or CT results match AD at the time of screening Organization of Groups: (1) Active drug group: 224 mg of a test compound (160 mg in terms of Compound A) was orally administered once a day for 52 weeks (176 patients) (2) Placebo group: placebo was orally administered once a day for 52 weeks (178 patients) Method of assessment: (1) ADAS-cog
(§4) The ADAS-cog score of the subject was evaluated at the baseline (before administration of investigational drug on the first day of administration) and after 52 weeks and the cognitive function was assessed based on the change from the baseline.
(§5) Changes in the ADAS-cog score and the ADCS-ADL score after 52 weeks from the baseline were compared between the high dose group and the placebo group, and between the low dose group and the placebo group based on MMRM with a significance level of 5%. For models, fixed effects included the treatment groups and time, while covariates included the baseline of ADAS-cog or ADCS-ADL and the baseline of MMSE. The interaction between time and the treatment groups and the interaction between the baseline of ADAS-cog and time were also included. For the period from clinical diagnosis, the first day of administration of donepezil hydrochloride which was combined with Compound A was defined as the time of clinical diagnosis. Furthermore, to match the conditions with those of Test Example 1, the subject was patients with an MMSE score of 22 or less at the time of screening.

[2] = tested on: mild to moderate AD patients; assay: Test Example 2: early phase II placebo-controlled trial, ADCS-ADL change from baseline; conditions: for Change in ADCS-ADL from baseline at week 52, least square means (95% confidence interval) / Change in ADCS-ADL from baseline at week 52, difference from placebo group (95% confidence interval): MMSE 22 or less at screening
Description: as §1, §2, §3
The ADCS-ADL score of the subject was evaluated at the baseline (before administration of investigational drug on the first day of administration) and after 52 weeks and the level of impairment was assessed based on the change from the baseline.
as §5

[3] = tested on: mild to moderate AD patients; assay: Test Example 1: phase II placebo-controlled trial, ADAS-cog change from baseline
Description: Test Example 1 Multicenter Randomized Double-Blind Phase II Placebo-Controlled Trial for Assessing Effectiveness and Safety of Compound a in Mild to Moderate AD Patients
Patients were screened in a period from 42 days before treatment assignment to the assignment based on the following selection criteria. Patients matched (484 patients) were randomly divided into the following 3 groups and the trial was started.
• Patients who were probable AD and are 55 years old or older and 85 years old or younger at the time of obtaining consent of screening. • Patients with an MMSE score of 12 to 22 at the time of screening • Patients with a Modified Hachinski Ischemia Scale score of 4 or less • Patients who have been treated with a donepezil hydrochloride or rivastigmine transdermal system for at least 4 months before the baseline and with a stable dose thereof for 3 months before the baseline. • In the case of patients who have received memantine in addition to being treated with a donepezil hydrochloride or rivastigmine transdermal system, patients who have been treated with memantine for at least 4 months before the baseline and with a stable dose thereof for 3 months before the baseline. • Patients whose brain MRI or CT results match AD at the time of screening Organization of Groups: (1) High dose group: 224 mg of a test compound (160 mg in terms of Compound A) was orally administered once a day for 4 weeks and then 448 mg of a test compound (320 mg in terms of Compound A) was orally administered once a day for 48 weeks (158 patients) (2) Low dose group: 224 mg of a test compound (160 mg in terms of Compound A) was orally administered once a day for 52 weeks (166 patients) (3) Placebo group: placebo was orally administered once a day for 52 weeks (158 patients) Method of assessment: (1) ADAS-cog
as §4
Changes in the ADAS-cog score and the ADCS-ADL score after 52 weeks from the baseline were compared between the high dose group and the placebo group, and between the low dose group and the placebo group based on the Mixed-effect Models for Repeated Measures (MMRM) with a significance level of 5%. For models, fixed effects included the treatment groups and time, while covariates included age, the baseline of ADAS-cog or ADCS-ADL, the baseline of MMSE and ApoE4 genotype (positive/negative). The interaction between time and the treatment groups and the interaction between the baseline of ADAS-cog and time were also included.

[4] = low dose group (160 mg in terms of Compound A, oral once a day, 52 weeks), within 2.6 years from clinical diagnosis
[5] = low dose group (160 mg), more than 2.6 years from clinical diagnosis
[6] = low dose group (160 mg), total (all periods)
[7] = low dose group (160 mg), within 2.6 years from clinical diagnosis
[8] = high dose group, more than 2.6 years from clinical diagnosis
[9] = high dose group, within 2.8 years from clinical diagnosis
[10] = high dose group, within 3 years from clinical diagnosis
[11] = high dose group, within 3.2 years from clinical diagnosis

## OC1CN(CCCOCCc2ccc3sccc3c2)C1 [Compound A, 1-(3-(2-(1-benzothiophen-5-yl)ethoxy)propyl)azetidin-3-ol]
[1]; Test Example 2, all subject patients
  Changes in ADAS-cog from the baseline at week 52, Compound A group versus placebo group (in words): no statistically significant difference
[1]; Test Example 2, low dose group (160 mg), within 2.6 years from clinical diagnosis of AD and MMSE score of 22 or less at screening
  Changes in ADAS-cog from the baseline at week 52, Compound A low dose group versus placebo group (in words): statistically significant difference
[1]; [4]
  Change in ADAS-cog from baseline at week 52, least square means (95% confidence interval): 1.3(−0.3, 4.7)
[1]; [5]
  Change in ADAS-cog from baseline at week 52, difference from placebo group (95% confidence interval): 1.7(−1.3, 4.7)
  Change in ADAS-cog from baseline at week 52, least square means (95% confidence interval): 3.0(0.8, 5.3)
[1]; [6]
  Change in ADAS-cog from baseline at week 52, difference from placebo group (95% confidence interval): −1.2(−3.0, 0.5)
  Change in ADAS-cog from baseline at week 52, least square means (95% confidence interval): 1.9(0.5, 3.2)
[1]; [7]
  Change in ADAS-cog from baseline at week 52, difference from placebo group (95% confidence interval): −2.6(−4.8, −0.5)
[2]; Test Example 2, low dose group (160 mg)
  Reduction in ADCS-ADL from the baseline at week 52 (in words): tended to be suppressed
[2]; Test Example 2, low dose group (160 mg), week 52
  Tendency to suppress reduction in ADCS-ADL, patients within 2.6 years versus all patients (in words): more remarkable
[2]; [4]
  Change in ADCS-ADL from baseline at week 52, least square means (95% confidence interval): −5.5(−7.8, −3.2)
[2]; [5]
  Change in ADCS-ADL from baseline at week 52, difference from placebo group (95% confidence interval): −3.5(−7.8, 0.8)
  Change in ADCS-ADL from baseline at week 52, least square means (95% confidence interval): −7.5(−10.8, −4.3)
[2]; [6]
  Change in ADCS-ADL from baseline at week 52, difference from placebo group (95% confidence interval): 0.5(−2.0, 3.0)
  Change in ADCS-ADL from baseline at week 52, least square means (95% confidence interval): −6.2(−8,1, −4.3)
[2]; [7]
  Change in ADCS-ADL from baseline at week 52, difference from placebo group (95% confidence interval): 2.6(−0.5, 5.7)
[3]; Test Example 1, all subject patients
  Changes in ADAS-cog from the baseline at week 52, Compound A group versus placebo group (in words): no statistically significant difference
[3]; Test Example 1, high dose group, patients within 2.6 years from clinical diagnosis of AD
  Changes in ADAS-cog from the baseline at week 52, Compound A high dose group versus placebo group (in words): statistically significant difference
[3]; Test Example 1, high dose group, periods 2.5 to 6 years from clinical diagnosis of AD
  Difference in ADAS-cog change between high dose group and placebo group, compared by periods from clinical diagnosis (in words): larger in patients whose period was shorter
[3]; Test Example 1, low dose group (160 mg), week 52
  Change in the ADAS-cog score, Compound A low dose group versus placebo group (in words): tended to be smaller than that in the placebo group
[3]; high dose group (160 mg 4 weeks then 320 mg 48 weeks in terms of Compound A, oral once a day), within 2.5 years from clinical diagnosis
  Change in ADAS-cog from baseline at week 52, least square means (95% confidence interval): 5.6
[3]; high dose group (160 mg 4 weeks then 320 mg 48 weeks, oral once a day), within 2.5 years from clinical diagnosis
  Change in ADAS-cog from baseline at week 52, difference from placebo group (95% confidence interval): −3.3
[3]; [8]
  Change in ADAS-cog from baseline at week 52, difference from placebo group (95% confidence interval): 1.8(−1.0, 4.6)
  Change in ADAS-cog from baseline at week 52, least square means (95% confidence interval): 8.4(6.3, 10.5)
[3]; [9]
  Change in ADAS-cog from baseline at week 52, difference from placebo group (95% confidence interval): −2.5
  Change in ADAS-cog from baseline at week 52, least square means (95% confidence interval): 6.2
[3]; [10]
  Change in ADAS-cog from baseline at week 52, difference from placebo group (95% confidence interval): −2.2
  Change in ADAS-cog from baseline at week 52, least square means (95% confidence interval): 6.1
[3]; [11]
  Change in ADAS-cog from baseline at week 52, difference from placebo group (95% confidence interval): −2.0
  Change in ADAS-cog from baseline at week 52, least square means (95% confidence interval): 6.4
[3]; high dose group, within 3.4 years from clinical diagnosis
  Change in ADAS-cog from baseline at week 52, difference from placebo group (95% confidence interval): −1.8
